Our source for the inhibition and IC50 values is patent US10093630B2, “Pyrazole compounds and methods of making and using same” (ABIDE THERAPEUTICS, INC., priority 2014, dated 2018).

Assay in all cases: In vitro competitive activity-based protein profiling (gel-based, FP-Rh or HT-01 probe)
Format in all cases: biochemical

One assay deals with T1, MAGL (Mus musculus, UniProt O35678).
T1 construct: Proteomes (mouse brain membrane fraction or cell lysates); from tissue; host or cells: mouse brain membrane fraction (or cell lysates, not specified)
T1 sequence (O35678 1-303): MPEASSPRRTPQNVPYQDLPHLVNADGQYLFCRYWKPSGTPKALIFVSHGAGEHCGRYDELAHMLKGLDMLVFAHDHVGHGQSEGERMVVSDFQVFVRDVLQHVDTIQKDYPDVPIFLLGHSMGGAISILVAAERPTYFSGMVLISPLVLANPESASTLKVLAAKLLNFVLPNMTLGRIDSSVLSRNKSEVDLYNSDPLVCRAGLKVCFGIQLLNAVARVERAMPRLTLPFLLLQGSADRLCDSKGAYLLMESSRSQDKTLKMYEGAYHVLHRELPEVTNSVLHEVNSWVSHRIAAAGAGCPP
The settings on record: for inhibition at 1 µM: 1 μM inhibitor; for inhibition at 10 µM: 10 μM inhibitor; for IC50: mouse brain membrane fraction or cell lysates, 30 min preincubation at 37° C., read-out: Mouse (IC50 value, nM) MAGL. In a few lines: (§1)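 Mouse brain membrane proteome or cell lysate (1.0 mg/mL protein) was preincubated with inhibitor at varying concentrations for 30 min at 37° C, then labelled with FP-Rh or HT-01 for 30 min at 37° C. After SDS-PAGE, residual hydrolase activity was quantified as in-gel fluorescence of each band.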

For another assay, the target named is T2, FAAH (Mus musculus, UniProt O08914).
T2 construct: Proteomes (mouse brain membrane fraction or cell lysates); from tissue; host or cells: mouse brain membrane fraction (or cell lysates, not specified)
T2 sequence (O08914 1-579): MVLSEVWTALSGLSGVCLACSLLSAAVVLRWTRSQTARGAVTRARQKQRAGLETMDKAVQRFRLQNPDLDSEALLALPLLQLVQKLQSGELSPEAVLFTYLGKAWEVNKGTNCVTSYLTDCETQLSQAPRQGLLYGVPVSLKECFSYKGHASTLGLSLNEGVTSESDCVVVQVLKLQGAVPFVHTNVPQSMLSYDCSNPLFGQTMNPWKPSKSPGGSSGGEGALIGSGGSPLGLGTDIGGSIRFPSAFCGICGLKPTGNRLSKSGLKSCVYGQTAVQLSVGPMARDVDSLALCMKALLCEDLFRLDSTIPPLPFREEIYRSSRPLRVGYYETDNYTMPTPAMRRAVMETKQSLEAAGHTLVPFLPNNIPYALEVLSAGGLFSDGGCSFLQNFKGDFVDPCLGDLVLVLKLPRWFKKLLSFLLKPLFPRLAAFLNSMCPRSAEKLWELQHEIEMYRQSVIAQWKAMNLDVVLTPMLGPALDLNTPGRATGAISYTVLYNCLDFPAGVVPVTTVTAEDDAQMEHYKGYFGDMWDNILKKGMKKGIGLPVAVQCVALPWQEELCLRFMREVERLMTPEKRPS
The settings on record: for inhibition at 1 µM: 1 μM inhibitor, read-out: % Inhibition at 1 μM, B = FAAH; for inhibition at 10 µM: 10 μM inhibitor, read-out: % Inhibition at 10 μM, B = FAAH; for IC50: mouse brain membrane fraction or cell lysates, 30 min preincubation at 37° C., read-out: Mouse (IC50 value, nM) FAAH. In a few lines: as §1

The next assay concerns the target T3, ABHD6 (Mus musculus, UniProt Q8R2Y0).
T3 construct: Proteomes (mouse brain membrane fraction or cell lysates); from tissue; host or cells: mouse brain membrane fraction (or cell lysates, not specified)
T3 sequence (Q8R2Y0 1-336): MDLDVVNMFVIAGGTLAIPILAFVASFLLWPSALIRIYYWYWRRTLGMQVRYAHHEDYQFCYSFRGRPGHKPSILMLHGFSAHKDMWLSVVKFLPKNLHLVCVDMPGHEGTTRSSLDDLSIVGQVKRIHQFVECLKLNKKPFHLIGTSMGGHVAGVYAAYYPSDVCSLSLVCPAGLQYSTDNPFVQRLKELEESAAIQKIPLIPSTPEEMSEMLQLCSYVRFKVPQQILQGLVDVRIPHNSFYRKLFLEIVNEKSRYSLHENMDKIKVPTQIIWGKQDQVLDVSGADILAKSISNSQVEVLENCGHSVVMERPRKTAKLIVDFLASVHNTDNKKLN
The settings on record: for inhibition at 1 µM: 1 μM inhibitor, read-out: % Inhibition at 1 μM, C = ABHD6; for inhibition at 10 µM: 10 μM inhibitor, read-out: % Inhibition at 10 μM, C = ABHD6; for IC50: mouse brain membrane fraction or cell lysates, 30 min preincubation at 37° C., read-out: Mouse (IC50 value, nM) ABHD6. In a few lines: as §1

The next assay has as its target T4, PLA2G7 (Mus musculus, UniProt Q60963).
T4 construct: Proteomes (mouse brain membrane fraction or cell lysates); from tissue; host or cells: mouse brain membrane fraction (or cell lysates, not specified)
T4 sequence (Q60963 22-440): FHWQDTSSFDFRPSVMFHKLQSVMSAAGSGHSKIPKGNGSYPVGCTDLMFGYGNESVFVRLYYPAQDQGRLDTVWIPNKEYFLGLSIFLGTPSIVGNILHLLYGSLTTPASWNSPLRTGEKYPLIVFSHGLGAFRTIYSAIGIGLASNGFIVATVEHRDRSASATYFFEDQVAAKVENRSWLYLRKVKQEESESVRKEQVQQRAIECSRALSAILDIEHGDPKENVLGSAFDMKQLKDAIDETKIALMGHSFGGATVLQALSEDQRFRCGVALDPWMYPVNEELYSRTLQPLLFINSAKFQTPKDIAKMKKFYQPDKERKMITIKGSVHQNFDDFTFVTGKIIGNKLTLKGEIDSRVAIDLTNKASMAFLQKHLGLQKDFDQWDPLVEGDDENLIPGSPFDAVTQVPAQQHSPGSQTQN
The settings on record: for inhibition at 1 µM: 1 μM inhibitor, read-out: % Inhibition at 1 μM, D = PLA2G7; for inhibition at 10 µM: 10 μM inhibitor, read-out: % Inhibition at 10 μM, D = PLA2G7; for IC50: mouse brain membrane fraction or cell lysates, 30 min preincubation at 37° C. In short, it runs like this: as §1

SMILES strings stand for the structures. Read-outs that look alike come from different tables or passages of the source.

With `O=C(c1cnn(C(=O)N2CCN(C(c3ccc(Cl)cc3)c3ccc(Cl)cc3)CC2)c1)N1CCOCC1` [Example 67, (4-(Bis(4-chlorophenyl)methyl)piperazin-1-yl)(4-(morpholine-4-carbonyl)-1H-pyrazol-1-yl)methanone], the inhibition at 1 µM was more than 75% at MAGL, less than 25% on FAAH, more than 75% on ABHD6 and more than 75% at PLA2G7. Further, the inhibition at 10 µM was more than 75% on MAGL, 25 to 75% on FAAH, more than 75% on ABHD6 and more than 75% on PLA2G7. Also, the figures for the IC50 on MAGL, at FAAH and at ABHD6 were 100 to 1000 nM, more than 1000 nM and 100 to 1000 nM, respectively.

As to `O=C(c1ccccc1)N1CCN(C(=O)n2cc(C(F)(F)F)cn2)CC1` [Example 153, (4-Benzoylpiperazin-1-yl)(4-(trifluoromethyl)-1H-pyrazol-1-yl)methanone], the inhibition at 1 µM on MAGL is more than 75%; on FAAH, less than 25%; at ABHD6, less than 25%; at PLA2G7, more than 75%. Besides, the inhibition at 10 µM at MAGL was more than 75%; at FAAH it was 25 to 75%; at ABHD6, more than 75%; at PLA2G7, more than 75%.

Take `CCN(Cc1ccc(OC)cc1)C(=O)n1cc(C#N)cn1` [Example 258, 4-Cyano-N-ethyl-N-(4-methoxybenzyl)-1H-pyrazole-1-carboxamide]: the inhibition at 1 µM is more than 75% on MAGL (gel-based competitive ABPP), more than 75% on FAAH (gel-based competitive ABPP), less than 25% at ABHD6 (gel-based competitive ABPP) and less than 25% at PLA2G7 (gel-based competitive ABPP). Moreover, the half-inhibitory concentration (IC50) on MAGL is 100 to 1000 nM; on FAAH it was less than 100 nM; on ABHD6, more than 1000 nM; at PLA2G7, more than 1000 nM.

As for `Cc1cc(N2CCN(C(=O)n3cc(Cl)cn3)CC2)c2ccccc2n1` [Example 208, (4-Chloro-1H-pyrazol-1-yl)(4-(2-methylquinolin-4-yl)piperazin-1-yl)methanone], the inhibition at 1 µM at MAGL, at FAAH, at ABHD6 and at PLA2G7 was more than 75% in each case. In addition, the inhibition at 10 µM on MAGL, on FAAH, on ABHD6 and at PLA2G7 was more than 75% in each case.

As for `N#Cc1cnn(C(=O)N2CCN(Cc3ccc(Oc4ccccc4)cc3)CC2)c1` [Example 18, 1-(4-(4-Phenoxybenzyl)piperazine-1-carbonyl)-1H-pyrazole-4-carbonitrile], the inhibition at 1 µM at MAGL, at FAAH, at ABHD6 and at PLA2G7 was more than 75% in each case. The inhibition at 10 µM on MAGL, at FAAH, at ABHD6 and at PLA2G7 was more than 75% in each case.

As to `Cc1cc(-c2ccccc2)ccc1CN1CCN(C(=O)n2cc(-c3ccccc3)cn2)CC1` [Example 65, (4-((3-Methyl-[1,1′-biphenyl]-4-yl)methyl)piperazin-1-yl)(4-phenyl-1H-pyrazol-1-yl)methanone], the inhibition at 1 µM on MAGL was less than 25%; on FAAH, more than 75%; at ABHD6, more than 75%; on PLA2G7, more than 75%. Moreover, the inhibition at 10 µM at MAGL, on FAAH, at ABHD6 and on PLA2G7 was more than 75% in each case.

`CCN(Cc1cccc(C)c1)C(=O)n1cc(C(F)(F)F)cn1` [Example 247, N-Ethyl-N-(3-methylbenzyl)-4-(trifluoromethyl)-1H-pyrazole-1-carboxamide]: the inhibition at 1 µM at MAGL (gel-based competitive ABPP) is less than 25%; at FAAH (gel-based competitive ABPP), more than 75%; on ABHD6 (gel-based competitive ABPP), 25 to 75%; on PLA2G7 (gel-based competitive ABPP), less than 25%. In addition, the inhibition at 10 µM on MAGL (gel-based competitive ABPP) is more than 75%; on FAAH (gel-based competitive ABPP), more than 75%; at ABHD6 (gel-based competitive ABPP) it was more than 75%; on PLA2G7 (gel-based competitive ABPP), less than 25%. Also, the IC50 on MAGL was 100 to 1000 nM; at FAAH, 100 to 1000 nM; at ABHD6, 100 to 1000 nM; at PLA2G7, more than 1000 nM.

`CC(=O)N(C)CCN(C)C(=O)n1cc(Cl)cn1` [Example 193, 4-Chloro-N-methyl-N-(2-(N-methylacetamido)ethyl)-1H-pyrazole-1-carboxamide]: the inhibition at 10 µM on MAGL, on FAAH, at ABHD6 and on PLA2G7 was less than 25% throughout.

For `N#Cc1cnn(C(=O)N2CCCN(Cc3ccc(Oc4ccccc4)cc3)CC2)c1` [Example 301, 1-(4-(4-Phenoxybenzyl)-1,4-diazepane-1-carbonyl)-1H-pyrazole-4-carbonitrile], the inhibition at 1 µM is more than 75% at MAGL (gel-based competitive ABPP), more than 75% at FAAH (gel-based competitive ABPP), more than 75% at ABHD6 (gel-based competitive ABPP) and less than 25% on PLA2G7 (gel-based competitive ABPP).

Turning to `CCN(Cc1cccc(C)c1)C(=O)n1cc(Cl)cn1` [Example 135, 4-Chloro-N-ethyl-N-(3-methylbenzyl)-1H-pyrazole-1-carboxamide], the inhibition at 1 µM on MAGL is 25 to 75%; at FAAH, more than 75%; at ABHD6 it was less than 25%; on PLA2G7, less than 25%. Also, the inhibition at 10 µM was more than 75% on MAGL, more than 75% on FAAH, more than 75% at ABHD6 and less than 25% on PLA2G7. In addition, the IC50 on MAGL is more than 1000 nM; at FAAH, 100 to 1000 nM; on ABHD6, more than 1000 nM.

`CCN(Cc1cccc(Cl)c1)C(=O)n1cc(C)cn1` [Example 245, N-(3-chlorobenzyl)-N-ethyl-4-methyl-1H-pyrazole-1-carboxamide]: the inhibition at 1 µM at MAGL (gel-based competitive ABPP), on FAAH (gel-based competitive ABPP), at ABHD6 (gel-based competitive ABPP) and on PLA2G7 (gel-based competitive ABPP) was less than 25% in each case.

For orientation: inhibition means the percentage by which the read-out fell short of the control. What is called IC50 is the concentration that gives 50% inhibition.
